Reference: PubChem BioAssay (NCI)
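Results reflect a 48-hour exposure of cells in 96-well plates to compound at five concentrations. Here, GI50 denotes the concentration required for 50% inhibition of growth. TGI: concentration producing complete growth inhibition.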

Key:
Assay in all cases: NCI-60 cell line screen, 48 h
MDA-MB-435 = system: MDA-MB-435
KM12 colon = system: KM12 colon
SF-539 CNS = system: SF-539 CNS
EKVX NSCLC = system: EKVX NSCLC
NCI-H23 lung = system: NCI-H23 lung
HOP-92 NSCLC = system: HOP-92 NSCLC
DU-145 prostate = system: DU-145 prostate
TK-10 renal = system: TK-10 renal
CAKI-1 renal = system: CAKI-1 renal
SK-OV-3 ovarian = system: SK-OV-3 ovarian
CCRF-CEM leukemia = system: CCRF-CEM leukemia
IGROV1 ovarian = system: IGROV1 ovarian
UO-31 renal = system: UO-31 renal
UACC-257 melanoma = system: UACC-257 melanoma
OVCAR-5 ovarian = system: OVCAR-5 ovarian
BT-549 breast = system: BT-549 breast
SF-268 CNS = system: SF-268 CNS
OVCAR-8 ovarian = system: OVCAR-8 ovarian
M14 melanoma = system: M14 melanoma
HOP-62 NSCLC = system: HOP-62 NSCLC
HCC-2998 colon = system: HCC-2998 colon
SW-620 colon = system: SW-620 colon
OVCAR-4 ovarian = system: OVCAR-4 ovarian
RPMI-8226 leukemia = system: RPMI-8226 leukemia
PC-3 prostate = system: PC-3 prostate
786-0 renal = system: 786-0 renal
MOLT-4 leukemia = system: MOLT-4 leukemia
U251 CNS = system: U251 CNS
ACHN renal = system: ACHN renal
A549 NSCLC = system: A549 NSCLC
K-562 leukemia = system: K-562 leukemia
MCF7 breast = system: MCF7 breast
NCI-H226 lung = system: NCI-H226 lung
SN12C renal = system: SN12C renal
COLO 205 colon = system: COLO 205 colon
A498 renal = system: A498 renal
HL-60(TB) leukemia = system: HL-60(TB) leukemia
HS 578T breast = system: HS 578T breast
SK-MEL-5 melanoma = system: SK-MEL-5 melanoma
NCI-H522 lung = system: NCI-H522 lung
LOX IMVI melanoma = system: LOX IMVI melanoma
UACC-62 melanoma = system: UACC-62 melanoma
MDA-MB-468 breast = system: MDA-MB-468 breast
SNB-19 CNS = system: SNB-19 CNS
SNB-75 CNS = system: SNB-75 CNS
MDA-MB-231 breast = system: MDA-MB-231 breast
OVCAR-3 ovarian = system: OVCAR-3 ovarian
HCT-15 colon = system: HCT-15 colon
HCT-116 colon = system: HCT-116 colon
SK-MEL-28 melanoma = system: SK-MEL-28 melanoma
RXF 393 renal = system: RXF 393 renal
SK-MEL-2 melanoma = system: SK-MEL-2 melanoma
MALME-3M melanoma = system: MALME-3M melanoma
SF-295 CNS = system: SF-295 CNS
NCI/ADR-RES ovarian = system: NCI/ADR-RES ovarian

Work on `O=C(NN1C(=O)/C(=C/C=C/c2ccc([N+](=O)[O-])o2)SC1=S)c1ccc(O)cc1` yielded a GI50 (MDA-MB-435) of 1130 nM, a TGI (MDA-MB-435) of 2510 nM and a GI50 (KM12 colon) of 1930 nM. The TGI (KM12 colon) was 4290 nM, the GI50 (SF-539 CNS) was 1660 nM and the TGI (SF-539 CNS) was 3120 nM. It also gave a GI50 (EKVX NSCLC) of 1570 nM, a TGI (EKVX NSCLC) of 3190 nM and a GI50 (NCI-H23 lung) of 1270 nM. It also gave a TGI (NCI-H23 lung) of 2690 nM, a GI50 (HOP-92 NSCLC) of 1630 nM and a TGI (HOP-92 NSCLC) of 3690 nM. For the same compound, the GI50 (DU-145 prostate) was 2350 nM, the TGI (DU-145 prostate) was 5790 nM and the GI50 (TK-10 renal) was 1830 nM. For the same compound, the TGI (TK-10 renal) was 3510 nM, the GI50 (CAKI-1 renal) was 1500 nM and the TGI (CAKI-1 renal) was 2900 nM. The GI50 (SK-OV-3 ovarian) was 2490 nM, the TGI (SK-OV-3 ovarian) was 5960 nM and the GI50 (CCRF-CEM leukemia) was 195 nM. It also gave a TGI (CCRF-CEM leukemia) of 1810 nM, a GI50 (IGROV1 ovarian) of 1460 nM and a TGI (IGROV1 ovarian) of 2820 nM. The GI50 (UO-31 renal) was 1510 nM, the TGI (UO-31 renal) was 2910 nM and the GI50 (UACC-257 melanoma) was 1690 nM. The TGI (UACC-257 melanoma) was 3500 nM, the GI50 (OVCAR-5 ovarian) was 1800 nM and the TGI (OVCAR-5 ovarian) was 3530 nM. It also gave a GI50 (BT-549 breast) of 1360 nM, a TGI (BT-549 breast) of 2790 nM and a GI50 (SF-268 CNS) of 1970 nM. For the same compound, the TGI (SF-268 CNS) was 4340 nM, the GI50 (OVCAR-8 ovarian) was 1300 nM and the TGI (OVCAR-8 ovarian) was 3400 nM. For the same compound, the GI50 (M14 melanoma) was 316 nM, the TGI (M14 melanoma) was 1350 nM and the GI50 (HOP-62 NSCLC) was 1890 nM. The TGI (HOP-62 NSCLC) was 3600 nM, the GI50 (HCC-2998 colon) was 1780 nM and the TGI (HCC-2998 colon) was 3320 nM. For the same compound, the GI50 (SW-620 colon) was 307 nM, the TGI (SW-620 colon) was 996 nM and the GI50 (OVCAR-4 ovarian) was 1860 nM. The TGI (OVCAR-4 ovarian) was 4220 nM, the GI50 (RPMI-8226 leukemia) was 713 nM and the TGI (RPMI-8226 leukemia) was 5340 nM. For the same compound, the GI50 (PC-3 prostate) was 2370 nM, the TGI (PC-3 prostate) was 7230 nM and the GI50 (786-0 renal) was 1780 nM. For the same compound, the TGI (786-0 renal) was 3270 nM, the GI50 (MOLT-4 leukemia) was greater than 100000 nM and the TGI (MOLT-4 leukemia) was greater than 100000 nM. It also gave a GI50 (U251 CNS) of 1750 nM, a TGI (U251 CNS) of 3520 nM and a GI50 (ACHN renal) of 1770 nM. It also gave a TGI (ACHN renal) of 3220 nM, a GI50 (A549 NSCLC) of 3780 nM and a TGI (A549 NSCLC) of 16300 nM. It also gave a GI50 (K-562 leukemia) greater than 100000 nM, a TGI (K-562 leukemia) greater than 100000 nM and a GI50 (MCF7 breast) of 1410 nM. For the same compound, the TGI (MCF7 breast) was 3190 nM, the GI50 (NCI-H226 lung) was 690 nM and the TGI (NCI-H226 lung) was 2280 nM. It also gave a GI50 (SN12C renal) of 344 nM, a TGI (SN12C renal) of 1630 nM and a GI50 (COLO 205 colon) of 1730 nM. The TGI (COLO 205 colon) was 3350 nM, the GI50 (A498 renal) was 18800 nM and the TGI (A498 renal) was 32800 nM. The GI50 (HL-60(TB) leukemia) was greater than 100000 nM, the TGI (HL-60(TB) leukemia) was greater than 100000 nM and the GI50 (HS 578T breast) was 2520 nM. The TGI (HS 578T breast) was 8640 nM, the GI50 (SK-MEL-5 melanoma) was 1120 nM and the TGI (SK-MEL-5 melanoma) was 2340 nM. It also gave a GI50 (NCI-H522 lung) of 217 nM, a TGI (NCI-H522 lung) of 498 nM and a GI50 (LOX IMVI melanoma) of 185 nM. For the same compound, the TGI (LOX IMVI melanoma) was 358 nM, the GI50 (UACC-62 melanoma) was 1050 nM and the TGI (UACC-62 melanoma) was 2260 nM. It also gave a GI50 (MDA-MB-468 breast) of 1720 nM, a TGI (MDA-MB-468 breast) of 3580 nM and a GI50 (SNB-19 CNS) of 1920 nM. It also gave a TGI (SNB-19 CNS) of 3900 nM, a GI50 (SNB-75 CNS) of 1310 nM and a TGI (SNB-75 CNS) of 4380 nM. The GI50 (MDA-MB-231 breast) was 399 nM, the TGI (MDA-MB-231 breast) was 1420 nM and the GI50 (OVCAR-3 ovarian) was 1680 nM. The TGI (OVCAR-3 ovarian) was 3140 nM, the GI50 (HCT-15 colon) was 212 nM and the TGI (HCT-15 colon) was 499 nM. The GI50 (HCT-116 colon) was 382 nM, the TGI (HCT-116 colon) was 1570 nM and the GI50 (SK-MEL-28 melanoma) was 1670 nM. It also gave a TGI (SK-MEL-28 melanoma) of 3100 nM, a GI50 (RXF 393 renal) of 1560 nM and a TGI (RXF 393 renal) of 2990 nM. For the same compound, the GI50 (SK-MEL-2 melanoma) was 1420 nM, the TGI (SK-MEL-2 melanoma) was 2990 nM and the GI50 (MALME-3M melanoma) was 246 nM. For the same compound, the TGI (MALME-3M melanoma) was 558 nM, the GI50 (SF-295 CNS) was 2040 nM and the TGI (SF-295 CNS) was 4590 nM. The GI50 (NCI/ADR-RES ovarian) was 2200 nM and the TGI (NCI/ADR-RES ovarian) was 5210 nM.
